Results published in ChEMBL document CHEMBL1156829 (Proc Natl Acad Sci U S A, 2008).

Experiments:
Plasmodium falciparum [1] = experiment: NOVARTIS: Inhibition of Plasmodium falciparum W2 (drug-resistant) proliferation in erythrocyte-based infection assay; assay type: functional, organism-based; conditions: Plasmodium falciparum, W2; read-out: EC50
Plasmodium falciparum [2] = experiment: NOVARTIS: Inhibition of Plasmodium falciparum 3D7 (drug-susceptible) proliferation in erythrocyte-based infection assay; assay type: functional, organism-based; conditions: Plasmodium falciparum, 3D7
[3] = NOVARTIS: Cytotoxicity against human hepatocellular carcinoma cell line (Huh7); assay type: toxicity, cell-based, Huh-7; conditions: Huh7 cells (hepatocellular carcinoma cell line)

| SMILES | EC50 (Plasmodium falciparum [1]) | EC50 (Plasmodium falciparum [2]) | CC50 [3] |
| --- | --- | --- | --- |
| O[C@@H](c1cc(C(F)(F)F)nc2c(C(F)(F)F)cccc12)[C@H]1CCCCN1 | 2.37 nM | 51.7 nM | > 6250 nM |
| CCCCCC(=O)N1c2ccccc2N=C2CC(c3ccc(OC)c(OC)c3)CC(O)=C2C1c1ccc(C(F)(F)F)cc1 (stereo unspecified) | 47 nM | 107 nM | > 100000 nM |
| O=C(c1ccco1)N1CCN(c2ccc([N+](=O)[O-])c(NC3CC3)c2)CC1 | 44.5 nM | 100 nM | > 100000 nM |
| CCCCCc1cc(O)c2c3c(c(=O)oc2c1)CN(C)CC3 | 37.6 nM | 49.4 nM | > 96800 nM |
| CCOC(=O)C1=C(C)NC2=C(C(=O)C(C(=O)OC)C(C)C2)C1c1cc(Br)c(OCC)c(OC)c1 (stereo unspecified) | 39.6 nM | 255 nM | > 100000 nM |
| CCCN(CCC)CC(O)COc1ccccc1C(=O)Nc1ccccc1 (stereo unspecified) | 51.1 nM | 365 nM | > 100000 nM |
| CCCN(C(=O)C(=O)Nc1ccc2nc3n(c(=O)c2c1)CCCCC3)c1ccc(OCC)cc1 | 50.1 nM | 89.9 nM | > 100000 nM |
| COc1cccc(-c2ccc(O)c(CNC34CC5CC(CC(C5)C3)C4)c2)n1 | 50 nM | 207 nM | > 100000 nM |
| CCOC(=O)C1=C(C)NC2=C(C(=O)CC(c3ccc(Cl)cc3)C2)C1c1ccc(Cl)cc1 (stereo unspecified) | 51.5 nM | 89.4 nM | > 100000 nM |
| CCSc1nc2sc3c(c2c(=O)n1-c1ccccc1)CCN(Cc1ccccc1)C3 | 34.8 nM | 85.8 nM | > 68400 nM |
| NCCCC[C@H]1C(=O)Nc2ccc(O)cc2C(=O)N1C(C(=O)NCC(=O)O)c1cccnc1 (stereo partly specified) | < 6.3 nM | 115 nM | > 12100 nM |
| COc1ccc(C2CC(=O)C3=C(C2)NC(C)=C(C(=O)OC(C)C)C3c2cccc(C)c2)cc1OC (stereo unspecified) | 19.1 nM | 82.1 nM | 54800 nM |
| Cc1cc(C)nc(/N=C(\N)Nc2ccccc2O)n1 | 36.2 nM | 379 nM | > 100000 nM |
| Oc1ccc(-c2ccc(F)cc2)cc1CNC1CCCCC1 | 6.28 nM | 40.2 nM | 17400 nM |
| CC1=C(C(=O)OC(C)C)C(c2ccccc2F)C2=C(CC(c3ccc(Cl)cc3)CC2=O)N1 (stereo unspecified) | 35.1 nM | 109 nM | > 100000 nM |
| CC(=O)NC(c1ccc(N(C)C)cc1)c1cc(Cl)c2cccnc2c1O (stereo unspecified) | 39.3 nM | 651 nM | > 100000 nM |
| COC(=O)C1=C(C)NC(=Cc2cc(C)n(-c3ccccc3F)c2C)C1=O | 38.3 nM | 20 nM | > 100000 nM |
| COCCOC(=O)C1=C(C)NC2=C(C(=O)CC(c3ccc(OC)c(OC)c3)C2)C1c1ccc(F)cc1 (stereo unspecified) | 17.7 nM | 38.2 nM | 46800 nM |
| CCOC(=O)C1=C(C)NC2=C(C(=O)C(C(=O)OC)C(C)C2)C1c1cc(Br)c(OC)c(OC)c1 (stereo unspecified) | 40.4 nM | 537 nM | > 100000 nM |
| N#Cc1c2c(c(N3CCN(Cc4ccc(F)cc4)CC3)n3c1nc1ccccc13)CCC2 | 37.7 nM | 19.8 nM | > 100000 nM |
| CCOC(=O)C(=O)N1c2ccc(C)cc2-c2c(ssc2=S)C1(C)C | 37.7 nM | 46.5 nM | > 100000 nM |
| CCOc1ccc(NC(=O)C2c3ccccc3C(=O)N(CC(C)C)C2c2cccs2)cc1 (stereo unspecified) | 36.7 nM | 78.3 nM | > 100000 nM |
| O[Si](CCCN1CCCCC1)(c1ccccc1)C1CCCCC1 (stereo unspecified) | 12.1 nM | 23.6 nM | 33000 nM |
| COc1ccc(C2CC(=O)C3=C(C2)NC(C)=C(C(=O)OC2CCCC2)C3c2ccc(SC)cc2)cc1OC (stereo unspecified) | 36.5 nM | 249 nM | > 100000 nM |
| CCC(C)OC(=O)C1=C(C)NC2=C(C(=O)CC(c3ccc(Cl)cc3)C2)C1c1ccc(Cl)cc1 (stereo unspecified) | 43.8 nM | 216 nM | > 100000 nM |
| CCOC(=O)C1=C(C)NC2=C(C(=O)CC(c3ccc(Cl)cc3)C2)C1c1ccc(F)cc1 (stereo unspecified) | 42.8 nM | 95 nM | > 100000 nM |

| SMILES | EC50 (Plasmodium falciparum [1]) | EC50 (Plasmodium falciparum [2]) | CC50 [3] |
| --- | --- | --- | --- |
| COC(=O)C1=C(C)NC2=C(C(=O)CC(c3ccc(OC)c(OC)c3)C2)C1c1cccc(O)c1 (stereo unspecified) | 50 nM | 92 nM | > 100000 nM |
| Cc1cc(NC(=O)C2c3ccccc3C(=O)N(CC(C)C)C2c2cccs2)no1 (stereo unspecified) | 45.3 nM | 85.6 nM | > 100000 nM |
| COc1ccc(C2CC(=O)C3=C(C2)NC(C)=C(C(=O)OC2CCCC2)C3c2ccc(F)cc2)cc1 (stereo unspecified) | 41.6 nM | 98.6 nM | > 100000 nM |
| Cc1nc(-c2ccccc2)nc(C(=O)N2CCN(C(=O)NC3CCCCC3)C(C)C2)c1C(=O)OC(C)C (stereo unspecified) | 41.7 nM | 84.4 nM | > 100000 nM |
| CCCOC(=O)C1=C(C)NC2=C(C(=O)CC(c3ccc(OC)c(OC)c3)C2)C1c1ccc(Br)cc1 (stereo unspecified) | 46.9 nM | 37.7 nM | > 100000 nM |
| O=C(NCCc1nc(-c2ccncc2)n[nH]1)C12CC3CC(CC(C3)C1)C2 | 44.9 nM | > 12500 nM | > 100000 nM |
| CCOC(=O)C1=C(CC)NC2=C(C(=O)CC(C)(C)C2)C1c1ccc(Cl)cc1Cl (stereo unspecified) | 45.9 nM | 208 nM | > 100000 nM |
| c1ccc([B-](c2ccccc2)(c2ccccc2)c2ccccc2)cc1 | 44.8 nM | 124 nM | > 100000 nM |
| CCC(=O)Nc1cc(NC(=O)CSc2nc(C)c(CC)c(O)n2)ccc1C | 1.61 nM | > 1250 nM | 3920 nM |
| Cc1cc(Nc2ccc(Br)c(C)c2)n2nc(C)nc2n1 | 45.8 nM | 53 nM | > 100000 nM |
| CCCOC(=O)C1=C(C)NC2=C(C(=O)CC(c3ccc(OC)c(OC)c3)C2)C1c1ccccc1Cl (stereo unspecified) | 44.8 nM | 66.2 nM | > 100000 nM |
| COc1ccc(C2CC3=NC(C)=C(C(=O)OC(C)C)C(c4ccccc4OC)C3=C(O)C2)cc1OC (stereo unspecified) | 39.8 nM | 91.9 nM | > 100000 nM |
| CCOC(=O)C1=C(CC)NC2=C(C(=O)CC(C)(C)C2)C1c1ccc(Br)cc1 (stereo unspecified) | 44.1 nM | 408 nM | > 100000 nM |
| CCOC(=O)C1=C(C)NC2=C(C(=O)CC(c3ccc(OC)cc3)C2)C1c1cccc(F)c1 (stereo unspecified) | 50.4 nM | 137 nM | > 100000 nM |
| O=[N+]([O-])c1ccc(S(=O)(=O)N2CCN(C(=S)NCc3ccccc3)CC2)cc1 | 38 nM | 79.6 nM | > 100000 nM |
| O=S(=O)(ON=C1CCCc2sc(Cl)cc21)c1ccccc1 | 40.9 nM | 158 nM | > 100000 nM |
| NC(=S)NN=Cc1cc([N+](=O)[O-])ccc1O | 52 nM | 68.6 nM | > 100000 nM |
| Cn1c2c([n+](C)c1CCl)C(=O)c1ccccc1C2=O | 3.55 nM | 3.1 nM | > 10000 nM |
| Oc1ccc(-c2ccc3c(c2)OCO3)cc1CNCC1(N2CCCCC2)CCCCC1 | 35.4 nM | 291 nM | > 100000 nM |
| Cc1cccc(Nc2c3c(c(C#N)c4nc5ccccc5n24)CCC3)c1 | 51.8 nM | 92.6 nM | > 100000 nM |
| COc1cccc(-c2ccc(O)c(CNCC3CCCCC3)c2)n1 | 17.7 nM | 58.5 nM | 46600 nM |
| CCCOC(=O)C1=C(C)NC2=C(C(=O)CC(c3ccc(OC)cc3)C2)C1c1ccc([N+](=O)[O-])cc1 (stereo unspecified) | 51.4 nM | 281 nM | > 100000 nM |
| CC(Cc1ccccc1)NCc1ccccc1O (stereo unspecified) | < 4.93 nM | 525 nM | > 10000 nM |
| CCOC(=O)C1=C(C)NC2=C(C(=O)CC(c3ccc(OC)c(OC)c3)C2)C1c1ccccc1OC (stereo unspecified) | 49.2 nM | 74.1 nM | > 100000 nM |
| CCOC(=O)C1=C(C)NC2=C(C(=O)CC(c3ccccc3)C2)C1c1ccccc1Cl (stereo unspecified) | 34.9 nM | 251 nM | > 100000 nM |
| CCOC(=O)C1=C(C)NC2=C(C(=O)CC(c3ccc(Cl)cc3)C2)C1c1ccccc1Cl (stereo unspecified) | 40.8 nM | 44.2 nM | > 100000 nM |
